Reference: patent publication US20240409585A1, “MACROCYCLIC IMMUNOMODULATORS” (priority 2021, published 2024)
Numbered stars: 1 amine (or outer) side, 2 acyl side, 3 side chain; on linkers, the order of the positions; unused ones are H or OH. Bridge positions count the residues as written; N and C are the ends. Square brackets hold non-standard residues; d marks the D form. Peptide text beside a SMILES is read from it. * marks the point of attachment. Bip(4'-COOH) = N[C@@H](Cc1ccc(-c2ccc(C(=O)O)cc2)cc1)C(=O)O; X2 = O=C(C[C@H](N[*:1])C(=O)[*:2])NS(=O)(=O)c1ccc(Cl)cc1; Phe(3,4-Cl2) = N[C@@H](Cc1ccc(Cl)c(Cl)c1)C(=O)O; Phe(3-CF3) = N[C@@H](Cc1cccc(C(F)(F)F)c1)C(=O)O; Ala(morpholin-4-yl) = N[C@@H](CN1CCOCC1)C(=O)O; Phe(4-COOH) = N[C@@H](Cc1ccc(C(=O)O)cc1)C(=O)O; Bip = N[C@@H](Cc1ccc(-c2ccccc2)cc1)C(=O)O; Phe(3-Me) = Cc1cccc(C[C@H](N)C(=O)O)c1; 2Pal = N[C@@H](Cc1ccccn1)C(=O)O; Cha = N[C@@H](CC1CCCCC1)C(=O)O; Carboxymethyl = O=C(O)C*; NMeA = CN[C@@H](C)C(=O)O; Nle = CCCC[C@H](N)C(=O)O; Orn = NCCC[C@H](N)C(=O)O; Dab = NCC[C@H](N)C(=O)O

What was measured:
[1] = biological target: T1, PE-labeled human PD-L1-Ig binding to Jurkat cell line over-expressing human PD-1 (Jurkat-PD-1) (Homo sapiens, UniProt Q15116); assay: Jurkat-PD-1 Cell Binding High-Content Screening Assay (CBA): Method 2 (presence and absence of tween-20); details: Jurkat-PD-1 cells, PE-labeled PD-L1-Ig 20 nM, presence or absence of tween-20 not given
T1 construct: expressed in transfected cells; host or cells: Jurkat
T1 sequence (Q15116 25-288): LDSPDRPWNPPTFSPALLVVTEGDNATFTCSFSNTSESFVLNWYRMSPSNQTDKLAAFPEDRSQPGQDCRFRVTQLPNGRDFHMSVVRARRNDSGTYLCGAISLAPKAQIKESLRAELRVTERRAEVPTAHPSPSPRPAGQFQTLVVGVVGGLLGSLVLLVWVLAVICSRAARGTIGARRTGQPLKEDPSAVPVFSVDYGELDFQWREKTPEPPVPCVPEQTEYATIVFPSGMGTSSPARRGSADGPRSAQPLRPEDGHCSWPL
Outline: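 Compounds incubated with Jurkat cells overexpressing human PD-1 for 2 h at 37° C, tested with and without tween-20 to flag aggregation. PE-labeled human PD-L1-Ig (20 nM final) added in DMEM/10% FCS; binding read by high-content imaging.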

[2] = biological target: T1, PE-labeled human PD-L1-Ig binding to Jurkat cell line over-expressing human PD-1 (Jurkat-PD-1); assay: Jurkat-PD-1 Cell Binding High-Content Screening Assay (CBA): Method 1; details: Jurkat-PD-1 cells, PE-labeled PD-L1-Ig; μM; read-out: CBA Method 1 μM
[3] = head μM, read-out: CBA Method 2 μM

| IC50 [1, 3] [µM] | IC50 [2] [µM] | IC50 ([1]; nM, read-out: CBA Method 2) [µM] | Compound |
| --- | --- | --- | --- |
| 0.11 | 0.01 |  | CCCC[C@@H]1NC(=O)CSC[C@@H](C(=O)N[C@@H](CCN)C(N)=O)NC(=O)[C@H](CCC(=O)O)NC(=O)[C@H](C(C)C)NC(=O)[C@H](CC2CCCCC2)NC(=O)[C@H](CCN)NC(=O)[C@@H](CC(C)C)NC(=O)[C@H](C)N(C)C(=O)[C@H](CCCN)NC(=O)[C@H](Cc2ccc(-c3ccccc3)cc2)NC(=O)[C@H](Cc2ccc(-c3ccc(C(=O)O)cc3)cc2)NC(=O)[C@H](Cc2cccc(C(F)(F)F)c2)NC(=O)[C@H](CC(=O)O)NC(=O)[C@H](Cc2ccc(-c3ccc(C(=O)O)cc3)cc2)NC1=O [Example 5089] ({CH2CO}-[Nle][Bip(4'-COOH)]D[Phe(3-CF3)][Bip(4'-COOH)][Bip][Orn][NMeA][dL][Dab][Cha]VEC[Dab]-NH2; thioether N-14) |
| 0.264 | 0.533 |  | CC(C)C[C@H]1NC(=O)[C@H](C)N(C)C(=O)[C@H](CCC(N)=O)NC(=O)[C@H](Cc2ccc(-c3ccccc3)cc2)NC(=O)[C@H](Cc2ccc(C(=O)O)cc2)NC(=O)[C@H](Cc2cccc(C(F)(F)F)c2)NC(=O)[C@H](CC(=O)NS(=O)(=O)c2ccc(Cl)cc2)NC(=O)[C@H](Cc2ccc(C(=O)O)cc2)NC(=O)[C@H](CN2CCOCC2)NC(=O)CSC[C@@H](C(=O)N[C@@H](CCN)C(N)=O)NC(=O)[C@H](CCCN)NC(=O)[C@H](C(C)C)NC(=O)[C@H](CC2CCCCC2)NC(=O)[C@H](CCN)NC1=O [Example 5078] ({CH2CO}-[Ala(morpholin-4-yl)][Phe(4-COOH)][X2][Phe(3-CF3)][Phe(4-COOH)][Bip]Q[NMeA][dL][Dab][Cha]V[Orn]C[Dab]-NH2; thioether N-14) |
| 0.0033 | 0.0029 |  | Cc1cccc(C[C@@H]2NC(=O)[C@H](CC(=O)O)NC(=O)[C@H](Cc3ccc(C(=O)O)cc3)NC(=O)[C@H](CN3CCOCC3)NC(=O)CSC[C@@H](C(=O)N[C@@H](CCN)C(N)=O)NC(=O)[C@H](CCCN)NC(=O)[C@H](C(C)C)NC(=O)[C@H](CC3CCCCC3)NC(=O)[C@H](CCN)NC(=O)[C@@H](CC(C)C)NC(=O)[C@H](C)N(C)C(=O)[C@H](CCC(N)=O)NC(=O)[C@H](Cc3ccc(-c4ccccc4)cc3)NC(=O)[C@H](Cc3ccc(-c4ccc(C(=O)O)cc4)cc3)NC2=O)c1 [Example 5059] ({CH2CO}-[Ala(morpholin-4-yl)][Phe(4-COOH)]D[Phe(3-Me)][Bip(4'-COOH)][Bip]Q[NMeA][dL][Dab][Cha]V[Orn]C[Dab]-NH2; thioether N-14) |
| 0.0171 | 0.0425 |  | Cc1cccc(C[C@@H]2NC(=O)[C@H](CC(=O)O)NC(=O)[C@H](Cc3ccc(OCC(=O)O)cc3)NC(=O)[C@H](CN3CCOCC3)NC(=O)CSC[C@@H](C(=O)N[C@@H](CCN)C(N)=O)NC(=O)[C@H](CCCN)NC(=O)[C@H](C(C)C)NC(=O)[C@H](Cc3ccccn3)NC(=O)[C@H](CCN)NC(=O)[C@@H](CC(C)C)NC(=O)[C@H](C)N(C)C(=O)[C@H](CCC(N)=O)NC(=O)[C@H](Cc3ccc(-c4ccccc4)cc3)NC(=O)[C@H](Cc3ccc(C(=O)O)cc3)NC2=O)c1 [Example 5038] ({CH2CO}-[Ala(morpholin-4-yl)]Y(Carboxymethyl)D[Phe(3-Me)][Phe(4-COOH)][Bip]Q[NMeA][dL][Dab][2Pal]V[Orn]C[Dab]-NH2; thioether N-14) |
|  | 0.01 | 0.0087 | CCCC[C@@H]1NC(=O)CSC[C@@H](C(=O)N[C@@H](CCN)C(N)=O)NC(=O)[C@H](CC(N)=O)NC(=O)[C@H](C(C)C)NC(=O)[C@H](CC2CCCCC2)NC(=O)[C@H](CCN)NC(=O)[C@@H](CC(C)C)NC(=O)[C@H](C)N(C)C(=O)[C@H](CCCN)NC(=O)[C@H](Cc2ccc(-c3ccccc3)cc2)NC(=O)[C@H](Cc2ccc(-c3ccc(C(=O)O)cc3)cc2)NC(=O)[C@H](Cc2cccc(C(F)(F)F)c2)NC(=O)[C@H](CC(=O)O)NC(=O)[C@H](Cc2ccc(-c3ccc(C(=O)O)cc3)cc2)NC1=O [Example 5090] ({CH2CO}-[Nle][Bip(4'-COOH)]D[Phe(3-CF3)][Bip(4'-COOH)][Bip][Orn][NMeA][dL][Dab][Cha]VNC[Dab]-NH2; thioether N-14) |
| 0.0689 | 0.0639 |  | Cc1cccc(C[C@@H]2NC(=O)[C@H](CC(=O)O)NC(=O)[C@H](Cc3ccc(OCC(=O)O)cc3)NC(=O)[C@H](CN3CCOCC3)NC(=O)CSC[C@@H](C(=O)N[C@@H](CCN)C(N)=O)NC(=O)[C@H](CCCN)NC(=O)[C@H](C(C)C)NC(=O)[C@H](Cc3ccc(Cl)c(Cl)c3)NC(=O)[C@H](CCN)NC(=O)[C@@H](CC(C)C)NC(=O)[C@H](C)N(C)C(=O)[C@H](CCC(N)=O)NC(=O)[C@H](Cc3ccc(-c4ccccc4)cc3)NC(=O)[C@H](Cc3ccc(C(=O)O)cc3)NC2=O)c1 [Example 5042] ({CH2CO}-[Ala(morpholin-4-yl)]Y(Carboxymethyl)D[Phe(3-Me)][Phe(4-COOH)][Bip]Q[NMeA][dL][Dab][Phe(3,4-Cl2)]V[Orn]C[Dab]-NH2; thioether N-14) |
